Results published in US9290459B1, “Substituted bicyclic dihydropyrimidinones and their use as inhibitors of neutrophil elastase activity” (Boehringer Ingelheim International GmbH, priority 2013, dated 2016).
pEC50, pIC50: −log10 of the molar value. Values after ≈ are worked out from the molar mass of the structure shown. Where two headings read alike, the source gives them in different places.

Columns and labels:
[1] = Metabolic stability with human liver microsomes; format: in vitro ADME; conditions: for half-life at 1 μM: pH 7.6
[2] = biological target: neutrophil elastase in human plasma (Homo sapiens (Human), UniProt P08246); assay: Neutrophil elastase inhibitory activity in human plasma (zymosan-stimulated blood); format: biochemical; conditions: neutrophil elastase enriched human plasma from zymosan-stimulated blood; read-out: EC50
Chain of neutrophil elastase in human plasma (P08246 30-247): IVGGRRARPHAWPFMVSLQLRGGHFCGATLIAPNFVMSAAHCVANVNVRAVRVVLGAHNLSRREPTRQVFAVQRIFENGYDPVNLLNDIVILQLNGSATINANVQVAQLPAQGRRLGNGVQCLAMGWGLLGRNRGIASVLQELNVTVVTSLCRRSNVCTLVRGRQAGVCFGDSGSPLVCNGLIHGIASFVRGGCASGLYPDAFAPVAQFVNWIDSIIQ

Aqueous solubility = format: physicochemical; conditions: McIlvaine buffer pH 6.8, 2.5% DMSO, 24 h shaking; for solubility at 24 h: McIlvaine buffer pH 6.8 with 2.5% DMSO, pH 6.8, aqueous buffer, kinetic from dmso stock
Experimental: Assay for Determination of Aqueous Solubility […] After 24 h of shaking, the solutions or suspensions are filtered and analyzed by LC-UV. The amount dissolved in buffer is compared to the amount dissolved in the acetonitrile/water (1/1) solution.

[3] = biological target: Human neutrophil elastase (Homo sapiens (Human), UniProt P08246); assay: Human Neutrophil Elastase Assay; format: biochemical; conditions: human neutrophil elastase, substrate MeOSuc-Ala-Ala-Pro-Val-AMC 250 μM, pH 7.5; read-out: IC50
Chain of Human neutrophil elastase (P08246 30-247): as above

[4] = Drug transport across human Caco-2 cells; format: in vitro ADME; conditions: human; for Papp A→B at 10 µM / Papp B→A at 10 µM: Caco-2, pH 7.2, Caco-2 monolayers, pH 7.2, 37° C.; for Papp A→B at 10 µM: apical-to-basal, read-out: PEAB; for Papp B→A at 10 µM: basal-to-apical, read-out: PEBA; for efflux ratio at 10 μM: Caco-2, pH 7.2, PEBA/PEAB, Caco-2

t1/2 INVITRO ([1]; pooled human liver microsomes, 1 mg/ml protein, 1 μM test compound, 37° C., NADPH) [min] | pEC50 [2] | Aqueous solubility (Aqueous solubility) [mg/mL] | pIC50 [3] | half-life at 1 μM ([1]; human, microsomes) [min] | solubility at 24 h (Aqueous solubility) [µg/mL] | Papp A→B at 10 µM [4] [×10⁻⁶ cm/s] | Papp B→A at 10 µM [4] [×10⁻⁶ cm/s] | efflux ratio at 10 μM [4] | half-life at 1 μM ([1]; pooled human liver microsomes, 1 mg/ml protein, 1 μM test compound, 37° C., NADPH, read-out: t1/2 INVITRO) [min] | SMILES
>130 | > 9.00 | 0.044 | 8.48 | – | – | – | – | – | – | CCNC(=O)N1C(=O)N(c2ccnc(C(F)(F)F)c2)C2=C(C(=O)CC2)C1c1ccc(C#N)cc1 (racemic) [Example 54.2]
– | – | – | 7.36 | > 130 | 76 (≈ 160 µM) | – | – | – | – | CS(=O)(=O)c1cc(C#N)ccc1C1NC(=O)N(c2ccnc(C(F)(F)F)c2)C2=C1C(=O)CC2 (centres unmarked) [Example 15.6, 4-(2,5-dioxo-1-(2-(trifluoromethyl)pyridin-4-yl)-2,3,4,5,6,7-hexahydro-1H-cyclopenta[d]-pyrimidin-4-yl)-3-(methylsulfonyl)benzonitrile]
– | 8.70 | – | 8.89 | > 130 | 89 (≈ 167 µM) | – | – | – | – | CS(=O)(=O)c1cc(C#N)ccc1C1C2=C(CCC2=O)N(c2cccc(C(F)(F)F)c2)C(=O)N1CC(=O)O (centres unmarked) [Example 19, 2-(4-(4-Cyano-2-(methylsulfonyl)phenyl)-2,5-dioxo-1-(3-(trifluoromethyl)phenyl)-6,7-dihydro-1H-cyclopenta[d]pyrimidin-3(2H,4H,5H)-yl)acetic acid]
– | 9.00 | – | > 9.00 | > 130 | 87 (≈ 147 µM) | – | – | – | – | CN(CCO)C(=O)CN1C(=O)N(c2cccc(C(F)(F)F)c2)C2=C(C(=O)CC2)C1c1ccc(C#N)cc1S(C)(=O)=O (centres unmarked) [Example 21, 2-(4-(4-Cyano-2-(methylsulfonyl)phenyl)-2,5-dioxo-1-(3-(trifluoromethyl)phenyl)-6,7-dihydro-1H-cyclopenta[d]pyrimidin-3(2H,4H,5H)-yl)-N-(2-hydroxyethyl)-N-methyl-acetamide]
– | 7.64 | – | 7.59 | > 130 | 13 (≈ 29.8 µM) | 36.5 | 54.5 | 1.5 | – | N#CCN1C(=O)N(c2cccc(C(F)(F)F)c2)C2=C(C(=O)CC2)C1c1ccc(C#N)cc1 (centres unmarked) [Example 22, 4-(3-(Cyanomethyl)-2,5-dioxo-1-(3-(trifluoromethyl)phenyl)-2,3,4,5,6,7-hexahydro-1H-cyclopenta[d]pyrimidin-4-yl)benzonitrile]
– | 8.70 | – | 8.80 | > 130 | – | 62.5 | 85.6 | 1.4 | – | CCN1C(=O)N(c2cccc(C(F)(F)F)c2)C2=C(C(=O)CC2)C1c1ccc(C#N)cc1S(C)(=O)=O (centres unmarked) [Example 24, 4-(3-Ethyl-2,5-dioxo-1-(3-(trifluoromethyl)phenyl)-2,3,4,5,6,7-hexahydro-1H-cyclopenta[d]pyrimidin-4-yl)-3-(methylsulfonyl)benzonitrile]
– | 7.89 | – | 7.57 | > 130 | 41 (≈ 99.4 µM) | 67.7 | 64.2 | 0.9 | – | CN1C(=O)N(c2cccc(C(F)(F)F)c2)C2=C(C(=O)CC2)C1c1ccc(C#N)cn1 (centres unmarked) [Example 26.1]
– | 8.70 | – | 8.62 | > 130 | 41 (≈ 104 µM) | 72 | 76 | 1.1 | – | CN1C(=O)N(c2cccc(C(F)F)c2)C2=C(C(=O)CC2)[C@H]1c1ccc(C#N)cc1 [Example 26A, (R)-4-(1-(3-(Difluoromethyl)phenyl)-3-methyl-2,5-dioxo-2,3,4,5,6,7-hexahydro-1H-cyclopenta[d]pyrimidin-4-yl)benzonitrile]
– | – | – | – | – | 79 (≈ 161 µM) | 11.8 | 66.2 | – | > 130 | CN1C(=O)N(c2ccnc(C(F)(F)F)c2)C2=C(C(=O)CC2)C1c1ccc(C#N)cc1S(C)(=O)=O (centres unmarked) [Example 29, 4-(3-Methyl-2,5-dioxo-1-(2-(trifluoromethyl)pyridin-4-yl)-2,3,4,5,6,7-hexahydro-1H-cyclopenta[d]pyrimidin-4-yl)-3-(methylsulfonyl)benzonitrile]
– | 7.85 | – | 8.38 | > 130 | – | 80.9 | 69.5 | 0.9 | – | CCOC(=O)N1C(=O)N(c2cccc(C(F)(F)F)c2)C2=C(C(=O)CC2)C1c1ccc(C#N)cc1 (centres unmarked) [Example 31, Ethyl 4-(4-Cyanophenyl)-2,5-dioxo-1-(3-(trifluoromethyl)phenyl)-4,5,6,7-tetrahydro-1H-cyclopenta[d]pyrimidine-3(2H)-carboxylate]
– | > 9.00 | – | > 9.00 | > 130 | 43 (≈ 80.6 µM) | 9.08 | 71.2 | 7.8 | – | COC(=O)N1C(=O)N(c2cccc(C(F)(F)F)c2)C2=C(C(=O)CC2)[C@H]1c1ccc(C#N)cc1S(C)(=O)=O [Example 33, (S)-Methyl 4-(4-cyano-2-(methylsulfonyl)phenyl)-2,5-dioxo-1-(3-(trifluoromethyl)-phenyl)-4,5,6,7-tetrahydro-1H-cyclopenta[d]pyrimidine-3(2H)-carboxylate]
– | 8.15 | – | 8.57 | > 130 | – | 56.9 | 73.8 | 1.3 | – | CCS(=O)(=O)N1C(=O)N(c2cccc(C(F)(F)F)c2)C2=C(C(=O)CC2)C1c1ccc(C#N)cc1 (centres unmarked) [Example 35, 4-(3-(Ethylsulfonyl)-2,5-dioxo-1-(3-(trifluoromethyl)phenyl)-2,3,4,5,6,7-hexahydro-1H-cyclopenta[d]pyrimidin-4-yl)benzonitrile]
– | 7.77 | – | 8.03 | – | – | 84.9 | 99.8 | 1.2 | – | CS(=O)(=O)N1C(=O)N(c2cccc(C(F)(F)F)c2)C2=C(C(=O)CC2)C1c1ccc(C#N)cc1Cl (centres unmarked) [Example 37.2]
– | – | – | 8.77 | > 130 | 21 (≈ 37 µM) | – | – | – | – | CCS(=O)(=O)c1cc(C#N)ccc1C1C2=C(CCC2=O)N(c2cccc(C(F)(F)F)c2)C(=O)N1S(C)(=O)=O (centres unmarked) [Example 37.4]
– | – | – | – | > 130 | 20 (≈ 38.1 µM) | 36.2 | 86 | 2.4 | – | N#Cc1ccc(C2C3=C(CCC3=O)N(c3cccc(C(F)(F)F)c3)C(=O)N2C(=O)N[C@@H]2CCC[C@H]2O)cc1 (some centres unmarked) [Example 42.3]
– | – | – | – | > 130 | 28 (≈ 53.4 µM) | 38.1 | 77.2 | 2 | – | N#Cc1ccc([C@@H]2C3=C(CCC3=O)N(c3cccc(C(F)(F)F)c3)C(=O)N2C(=O)N[C@H]2CCC[C@@H]2O)cc1 [Example 45.4]
– | > 9.00 | – | > 9.00 | > 130 | 19 (≈ 34 µM) | 7.74 | 85.5 | – | – | CS(=O)(=O)c1cc(C#N)ccc1[C@@H]1C2=C(CCC2=O)N(c2cccc(C(F)(F)F)c2)C(=O)N1C(=O)NC1CC1 [Example 47.4]
– | 8.40 | – | > 9.00 | > 130 | – | 83.1 | 64.8 | 0.8 | – | CNC(=O)N1C(=O)N(c2cccc(C(F)(F)F)c2)C2=C(C(=O)CC2)[C@H]1c1ccc(C#N)cc1F [Example 49A, (S)-4-(4-Cyano-2-fluorophenyl)-N-methyl-2,5-dioxo-1-(3-(trifluoromethyl)phenyl)-4,5,6,7-tetrahydro-1H-cyclopenta[d]pyrimidine-3(2H)-carboxamide]
– | > 9.00 | – | > 9.00 | > 130 | 91 (≈ 195 µM) | – | – | – | – | N#Cc1ccc(C2C3=C(CCC3=O)N(c3cccc(C(F)F)c3)C(=O)N2C(=O)NCCO)cc1 (centres unmarked) [Example 52.3]
– | 8.52 | – | 8.21 | > 130 | – | – | – | – | – | CC(C)(O)CNC(=O)N1C(=O)N(c2ccnc(C(F)(F)F)c2)C2=C(C(=O)CC2)C1c1ccc(C#N)cc1 (centres unmarked) [Example 55, 4-(4-Cyanophenyl)-N-(2-hydroxy-2-methylpropyl)-2,5-dioxo-1-(2-(trifluoromethyl)-pyridin-4-yl)-4,5,6,7-tetrahydro-1H-cyclopenta[d]pyrimidine-3(2H)-carboxamide]

SMILES | t1/2 INVITRO ([1]; pooled human liver microsomes, 1 mg/ml protein, 1 μM test compound, 37° C., NADPH) [min] | pEC50 [2] | Aqueous solubility (Aqueous solubility) [mg/mL] | pIC50 [3] | half-life at 1 μM ([1]; human, microsomes) [min] | solubility at 24 h (Aqueous solubility) [µg/mL] | Papp A→B at 10 µM [4] [×10⁻⁶ cm/s] | Papp B→A at 10 µM [4] [×10⁻⁶ cm/s] | efflux ratio at 10 μM [4] | half-life at 1 μM ([1]; pooled human liver microsomes, 1 mg/ml protein, 1 μM test compound, 37° C., NADPH, read-out: t1/2 INVITRO) [min]
CCS(=O)(=O)c1cc(C#N)ccc1[C@H]1NC(=O)N(c2cccc(C(F)(F)F)c2)C2=C1C(=O)CC2 [Example 14A, (S)-4-(2,5-Dioxo-1-(3-(trifluoromethyl)phenyl)-2,3,4,5,6,7-hexahydro-1H-cyclopenta[d]pyrimidin-4-yl)-3-(ethylsulfonyl)benzonitrile] | – | 9.00 | – | 8.92 | > 130 | 62 (≈ 127 µM) | 10.3 | 94.8 | 9.2 | –
CS(=O)(=O)c1cc(C#N)ccc1[C@H]1NC(=O)N(c2cccc(C(F)F)c2)C2=C1C(=O)CC2 [Example 15.4A, (S)-4-(1-(3-(Difluoromethyl)phenyl)-2,5-dioxo-2,3,4,5,6,7-hexahydro-1H-cyclopenta[d]pyrimidin-4-yl)-3-(methylsulfonyl)benzonitrile] | – | 8.70 | – | 8.54 | > 130 | 69 (≈ 151 µM) | 3 | 46 | 15 | –
